Experimental data published in patent US10669284B2, “Fused thiazolopyrimidine derivatives as MNKS inhibitors” (LIFEARC, priority 2015, dated 2020).

Experiments:
SRC = SRC (Homo sapiens, UniProt P12931); experiment: Kinase selectivity screen SRC; settings: read-out: % inhibition of SRC
ALK = ALK (Homo sapiens, UniProt Q9UM73); experiment: Kinase selectivity screen ALK; settings: read-out: % inhibition of ALK
TBK1 = molecular target: T1, TBK1 (Homo sapiens, UniProt Q9UHD2); experiment: Kinase selectivity screen TBK1; settings: read-out: % inhibition of TBK1
T1 sequence (Q9UHD2 1-729): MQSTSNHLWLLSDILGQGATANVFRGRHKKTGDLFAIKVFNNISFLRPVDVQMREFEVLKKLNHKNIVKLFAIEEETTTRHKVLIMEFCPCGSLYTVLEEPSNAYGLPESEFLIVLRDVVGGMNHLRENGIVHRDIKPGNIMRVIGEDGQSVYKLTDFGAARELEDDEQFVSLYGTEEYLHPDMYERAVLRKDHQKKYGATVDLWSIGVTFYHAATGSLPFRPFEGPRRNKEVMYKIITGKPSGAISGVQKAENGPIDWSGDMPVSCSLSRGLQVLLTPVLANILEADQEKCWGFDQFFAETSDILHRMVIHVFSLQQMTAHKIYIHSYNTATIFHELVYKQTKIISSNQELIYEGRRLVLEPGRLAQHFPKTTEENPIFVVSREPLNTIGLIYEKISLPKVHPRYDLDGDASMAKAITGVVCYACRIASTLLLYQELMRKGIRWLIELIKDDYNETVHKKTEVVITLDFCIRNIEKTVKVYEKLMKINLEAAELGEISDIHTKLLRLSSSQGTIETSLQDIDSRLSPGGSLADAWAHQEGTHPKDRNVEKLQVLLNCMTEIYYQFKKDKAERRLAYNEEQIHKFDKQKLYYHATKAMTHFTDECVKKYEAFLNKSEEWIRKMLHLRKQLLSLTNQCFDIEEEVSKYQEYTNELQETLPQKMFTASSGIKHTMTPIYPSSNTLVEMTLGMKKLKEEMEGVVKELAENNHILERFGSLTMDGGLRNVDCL

YES1 = YES1 (Homo sapiens, UniProt P07947); experiment: Kinase selectivity screen YES1; settings: read-out: % inhibition of YES1
PIM2 = PIM2 (Homo sapiens, UniProt Q9P1W9); experiment: Kinase selectivity screen PIM2; settings: read-out: % inhibition of PIM2
FLT1 = FLT1 (Homo sapiens, UniProt P17948); experiment: Kinase selectivity screen FLT1; settings: read-out: % inhibition of FLT1
FGFR4 = FGFR4 (Homo sapiens, UniProt P22455); experiment: Kinase selectivity screen FGFR4; settings: read-out: % inhibition of FGFR4
ROCK1 = ROCK1 (Homo sapiens, UniProt Q13464); experiment: Kinase selectivity screen ROCK1; settings: read-out: % inhibition of ROCK1
PRKCE = molecular target: T2, PRKCE (Homo sapiens, UniProt Q02156); experiment: Kinase selectivity screen PRKCE; settings: read-out: % inhibition of PRKCE
T2 sequence (Q02156 1-737): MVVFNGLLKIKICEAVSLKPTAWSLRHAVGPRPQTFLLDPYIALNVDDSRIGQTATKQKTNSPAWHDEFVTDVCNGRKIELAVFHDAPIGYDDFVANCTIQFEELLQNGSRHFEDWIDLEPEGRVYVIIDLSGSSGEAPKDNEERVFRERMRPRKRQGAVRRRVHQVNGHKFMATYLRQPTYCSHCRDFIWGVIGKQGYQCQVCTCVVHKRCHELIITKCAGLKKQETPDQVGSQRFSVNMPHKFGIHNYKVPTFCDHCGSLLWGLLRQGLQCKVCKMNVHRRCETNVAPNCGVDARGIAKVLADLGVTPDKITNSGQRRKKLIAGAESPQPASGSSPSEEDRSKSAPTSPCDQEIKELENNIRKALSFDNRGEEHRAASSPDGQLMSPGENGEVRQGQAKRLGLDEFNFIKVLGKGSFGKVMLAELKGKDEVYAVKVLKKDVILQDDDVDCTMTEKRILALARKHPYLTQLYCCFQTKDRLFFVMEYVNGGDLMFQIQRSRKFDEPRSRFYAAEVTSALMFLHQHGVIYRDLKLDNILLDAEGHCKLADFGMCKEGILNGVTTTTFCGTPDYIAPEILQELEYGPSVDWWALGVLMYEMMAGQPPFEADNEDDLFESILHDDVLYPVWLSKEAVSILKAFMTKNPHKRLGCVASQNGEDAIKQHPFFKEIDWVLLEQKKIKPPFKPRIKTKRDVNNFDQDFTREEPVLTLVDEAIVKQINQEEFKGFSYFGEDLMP

AURKC = molecular target: T3, AURKC (Homo sapiens, UniProt Q9UQB9); experiment: Kinase selectivity screen AURKC; settings: read-out: % inhibition of AURKC
T3 sequence (Q9UQB9 1-309): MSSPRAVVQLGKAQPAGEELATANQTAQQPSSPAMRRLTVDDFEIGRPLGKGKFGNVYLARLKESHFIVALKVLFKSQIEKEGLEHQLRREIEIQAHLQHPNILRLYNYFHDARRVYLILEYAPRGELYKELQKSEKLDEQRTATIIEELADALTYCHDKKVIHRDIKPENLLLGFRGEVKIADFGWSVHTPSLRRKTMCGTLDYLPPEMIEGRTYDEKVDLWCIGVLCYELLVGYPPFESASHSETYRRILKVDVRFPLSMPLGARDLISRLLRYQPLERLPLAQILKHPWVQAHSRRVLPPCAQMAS

STK17A = molecular target: T4, STK17A (Homo sapiens, UniProt Q9UEE5); experiment: Kinase selectivity screen STK17A; settings: read-out: % inhibition of STK17A
T4 sequence (Q9UEE5 1-414): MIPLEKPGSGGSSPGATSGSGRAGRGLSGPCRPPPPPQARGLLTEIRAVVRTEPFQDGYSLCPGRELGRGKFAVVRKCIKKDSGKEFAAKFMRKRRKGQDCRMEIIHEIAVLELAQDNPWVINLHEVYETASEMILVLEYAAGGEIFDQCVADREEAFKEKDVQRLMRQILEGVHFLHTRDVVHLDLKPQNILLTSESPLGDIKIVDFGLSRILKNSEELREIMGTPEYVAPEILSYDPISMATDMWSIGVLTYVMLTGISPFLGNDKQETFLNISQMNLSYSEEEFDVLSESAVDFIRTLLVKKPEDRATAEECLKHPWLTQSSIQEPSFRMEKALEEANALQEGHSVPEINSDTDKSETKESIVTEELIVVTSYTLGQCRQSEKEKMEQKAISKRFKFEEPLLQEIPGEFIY

FGFR4, sequence (P22455 22-802, species assumed): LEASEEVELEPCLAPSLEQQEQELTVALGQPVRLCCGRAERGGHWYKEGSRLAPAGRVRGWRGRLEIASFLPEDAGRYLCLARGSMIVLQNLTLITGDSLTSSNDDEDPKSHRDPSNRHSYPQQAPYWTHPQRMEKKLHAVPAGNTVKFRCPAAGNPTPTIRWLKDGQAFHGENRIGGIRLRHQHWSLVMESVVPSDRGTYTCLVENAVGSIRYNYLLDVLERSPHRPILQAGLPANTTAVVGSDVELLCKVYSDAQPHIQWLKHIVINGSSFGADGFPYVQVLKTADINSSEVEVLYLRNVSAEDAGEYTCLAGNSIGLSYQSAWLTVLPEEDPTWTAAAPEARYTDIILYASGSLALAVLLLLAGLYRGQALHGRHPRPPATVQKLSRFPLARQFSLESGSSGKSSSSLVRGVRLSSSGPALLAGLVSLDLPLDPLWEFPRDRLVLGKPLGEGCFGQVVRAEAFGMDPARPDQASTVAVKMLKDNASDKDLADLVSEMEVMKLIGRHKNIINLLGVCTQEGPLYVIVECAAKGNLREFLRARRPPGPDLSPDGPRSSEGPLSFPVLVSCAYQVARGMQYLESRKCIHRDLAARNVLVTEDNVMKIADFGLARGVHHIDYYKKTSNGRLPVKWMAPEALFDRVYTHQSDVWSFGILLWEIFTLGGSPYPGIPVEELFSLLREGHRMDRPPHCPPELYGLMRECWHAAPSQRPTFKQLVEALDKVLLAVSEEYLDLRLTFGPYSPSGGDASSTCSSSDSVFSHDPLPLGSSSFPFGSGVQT
ALK, sequence (Q9UM73 19-1620, species assumed): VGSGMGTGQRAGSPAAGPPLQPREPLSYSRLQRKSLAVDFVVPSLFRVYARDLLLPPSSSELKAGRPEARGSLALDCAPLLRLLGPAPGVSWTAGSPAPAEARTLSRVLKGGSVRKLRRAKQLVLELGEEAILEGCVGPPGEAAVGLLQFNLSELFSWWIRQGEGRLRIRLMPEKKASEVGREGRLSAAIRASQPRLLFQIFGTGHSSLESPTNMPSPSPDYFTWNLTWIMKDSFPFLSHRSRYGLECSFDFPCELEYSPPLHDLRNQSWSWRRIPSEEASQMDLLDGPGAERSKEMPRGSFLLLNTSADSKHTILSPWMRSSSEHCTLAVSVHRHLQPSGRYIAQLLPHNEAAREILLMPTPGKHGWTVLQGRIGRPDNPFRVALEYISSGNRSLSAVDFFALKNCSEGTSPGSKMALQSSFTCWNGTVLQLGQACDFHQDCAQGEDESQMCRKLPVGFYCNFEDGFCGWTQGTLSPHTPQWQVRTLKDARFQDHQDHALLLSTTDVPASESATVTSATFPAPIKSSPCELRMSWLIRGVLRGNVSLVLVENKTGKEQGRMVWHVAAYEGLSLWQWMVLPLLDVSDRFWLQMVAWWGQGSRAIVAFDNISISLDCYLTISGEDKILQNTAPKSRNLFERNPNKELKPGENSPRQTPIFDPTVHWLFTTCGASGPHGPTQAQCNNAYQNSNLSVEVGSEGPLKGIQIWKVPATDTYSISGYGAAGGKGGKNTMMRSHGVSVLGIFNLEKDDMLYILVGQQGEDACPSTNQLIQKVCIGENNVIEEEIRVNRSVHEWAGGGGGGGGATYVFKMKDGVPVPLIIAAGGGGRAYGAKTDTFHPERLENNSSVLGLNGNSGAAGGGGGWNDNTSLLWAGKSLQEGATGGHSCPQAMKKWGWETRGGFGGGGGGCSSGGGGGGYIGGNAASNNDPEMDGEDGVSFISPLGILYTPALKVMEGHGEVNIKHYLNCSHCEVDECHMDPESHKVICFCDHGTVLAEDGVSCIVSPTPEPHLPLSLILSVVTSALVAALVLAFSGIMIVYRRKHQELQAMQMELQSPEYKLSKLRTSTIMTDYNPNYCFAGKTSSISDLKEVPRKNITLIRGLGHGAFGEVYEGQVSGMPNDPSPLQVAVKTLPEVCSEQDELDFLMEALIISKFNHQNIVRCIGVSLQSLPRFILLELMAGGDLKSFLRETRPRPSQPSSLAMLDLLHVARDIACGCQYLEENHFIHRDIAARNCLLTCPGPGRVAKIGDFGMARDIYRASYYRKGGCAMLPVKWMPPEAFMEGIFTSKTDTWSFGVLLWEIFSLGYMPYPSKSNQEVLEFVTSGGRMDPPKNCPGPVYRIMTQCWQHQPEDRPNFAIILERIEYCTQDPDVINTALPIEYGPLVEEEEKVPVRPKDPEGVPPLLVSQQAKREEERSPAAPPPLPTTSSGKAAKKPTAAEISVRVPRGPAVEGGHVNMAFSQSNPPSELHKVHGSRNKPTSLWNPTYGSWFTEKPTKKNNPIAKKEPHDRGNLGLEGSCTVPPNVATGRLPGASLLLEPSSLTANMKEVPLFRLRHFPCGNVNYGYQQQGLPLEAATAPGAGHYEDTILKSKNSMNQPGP
YES1, sequence (P07947 whole entry, species assumed): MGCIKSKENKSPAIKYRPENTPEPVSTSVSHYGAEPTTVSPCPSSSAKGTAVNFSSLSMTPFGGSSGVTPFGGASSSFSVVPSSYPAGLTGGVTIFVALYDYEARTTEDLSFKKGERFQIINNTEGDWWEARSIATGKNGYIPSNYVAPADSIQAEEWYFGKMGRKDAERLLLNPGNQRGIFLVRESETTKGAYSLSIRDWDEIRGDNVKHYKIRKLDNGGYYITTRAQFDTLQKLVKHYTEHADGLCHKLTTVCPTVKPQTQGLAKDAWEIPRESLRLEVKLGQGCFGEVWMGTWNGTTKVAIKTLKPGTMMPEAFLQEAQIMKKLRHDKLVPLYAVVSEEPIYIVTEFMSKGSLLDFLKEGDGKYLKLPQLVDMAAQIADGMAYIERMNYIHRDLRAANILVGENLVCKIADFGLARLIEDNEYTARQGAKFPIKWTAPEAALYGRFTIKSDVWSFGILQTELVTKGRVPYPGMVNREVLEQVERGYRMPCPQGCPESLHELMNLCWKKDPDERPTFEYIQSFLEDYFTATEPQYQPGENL
SRC, sequence (P12931 whole entry): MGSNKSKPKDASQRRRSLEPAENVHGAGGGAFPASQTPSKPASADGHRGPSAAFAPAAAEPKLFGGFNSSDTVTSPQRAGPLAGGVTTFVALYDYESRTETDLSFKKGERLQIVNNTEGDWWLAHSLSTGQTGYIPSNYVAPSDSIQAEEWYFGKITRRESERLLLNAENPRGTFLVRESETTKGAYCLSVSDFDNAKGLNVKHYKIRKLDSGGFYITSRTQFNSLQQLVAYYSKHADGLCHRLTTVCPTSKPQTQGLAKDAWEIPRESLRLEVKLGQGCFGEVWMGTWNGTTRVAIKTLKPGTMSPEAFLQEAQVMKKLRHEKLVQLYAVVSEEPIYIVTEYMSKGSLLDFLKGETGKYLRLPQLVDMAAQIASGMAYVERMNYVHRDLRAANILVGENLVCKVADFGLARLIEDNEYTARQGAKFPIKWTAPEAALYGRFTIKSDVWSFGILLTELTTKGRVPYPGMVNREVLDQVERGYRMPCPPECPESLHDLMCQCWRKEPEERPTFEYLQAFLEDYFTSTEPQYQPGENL
FLT1, sequence (P17948 27-1338, species assumed): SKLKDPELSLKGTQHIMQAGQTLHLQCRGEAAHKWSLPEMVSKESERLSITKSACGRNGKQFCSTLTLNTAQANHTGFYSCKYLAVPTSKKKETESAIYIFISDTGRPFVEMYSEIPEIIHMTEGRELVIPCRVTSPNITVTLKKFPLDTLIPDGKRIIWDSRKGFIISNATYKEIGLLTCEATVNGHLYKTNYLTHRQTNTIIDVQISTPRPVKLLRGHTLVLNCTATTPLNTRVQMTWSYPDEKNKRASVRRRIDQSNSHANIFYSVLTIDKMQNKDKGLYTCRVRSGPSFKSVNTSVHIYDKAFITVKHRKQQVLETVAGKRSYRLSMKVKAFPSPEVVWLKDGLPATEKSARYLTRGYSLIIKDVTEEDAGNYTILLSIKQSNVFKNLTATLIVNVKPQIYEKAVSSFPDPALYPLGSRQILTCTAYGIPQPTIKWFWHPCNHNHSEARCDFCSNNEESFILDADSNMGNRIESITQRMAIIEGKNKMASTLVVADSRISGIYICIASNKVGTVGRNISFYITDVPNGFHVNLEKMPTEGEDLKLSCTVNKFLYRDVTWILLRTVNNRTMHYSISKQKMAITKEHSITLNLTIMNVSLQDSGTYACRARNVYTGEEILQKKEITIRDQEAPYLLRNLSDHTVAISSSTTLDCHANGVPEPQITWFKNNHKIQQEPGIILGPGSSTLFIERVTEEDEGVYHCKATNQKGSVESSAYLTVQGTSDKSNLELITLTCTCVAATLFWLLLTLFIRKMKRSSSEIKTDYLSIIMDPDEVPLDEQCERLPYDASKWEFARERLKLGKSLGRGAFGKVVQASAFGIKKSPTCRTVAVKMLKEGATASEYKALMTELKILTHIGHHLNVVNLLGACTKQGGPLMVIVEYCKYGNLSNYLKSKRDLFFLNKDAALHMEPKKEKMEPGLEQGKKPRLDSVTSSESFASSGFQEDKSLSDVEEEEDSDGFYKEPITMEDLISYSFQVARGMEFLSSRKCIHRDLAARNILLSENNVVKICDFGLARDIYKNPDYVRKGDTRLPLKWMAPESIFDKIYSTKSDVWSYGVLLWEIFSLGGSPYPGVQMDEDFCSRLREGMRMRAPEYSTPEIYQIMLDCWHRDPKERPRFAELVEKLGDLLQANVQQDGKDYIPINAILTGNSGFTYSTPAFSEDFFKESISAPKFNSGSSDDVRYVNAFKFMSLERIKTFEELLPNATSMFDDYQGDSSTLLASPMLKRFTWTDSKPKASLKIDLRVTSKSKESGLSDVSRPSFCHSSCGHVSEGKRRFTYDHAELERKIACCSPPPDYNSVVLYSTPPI
PIM2, sequence (Q9P1W9 whole entry, species assumed): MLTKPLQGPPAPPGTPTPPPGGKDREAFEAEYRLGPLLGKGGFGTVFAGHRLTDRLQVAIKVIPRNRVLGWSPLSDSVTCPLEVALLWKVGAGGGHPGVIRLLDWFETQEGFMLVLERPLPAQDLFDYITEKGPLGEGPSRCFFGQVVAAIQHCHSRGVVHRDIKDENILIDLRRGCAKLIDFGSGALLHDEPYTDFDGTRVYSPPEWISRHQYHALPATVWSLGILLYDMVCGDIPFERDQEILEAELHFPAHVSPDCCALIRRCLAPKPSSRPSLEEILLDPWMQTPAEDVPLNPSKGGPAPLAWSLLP

SMILES	inhibition at 1 µM (SRC) [%]	inhibition at 1 µM (ALK) [%]	inhibition at 1 µM (TBK1) [%]	inhibition at 1 µM (YES1) [%]	inhibition at 1 µM (PIM2) [%]	inhibition at 1 µM (FLT1) [%]	inhibition at 1 µM (FGFR4) [%]	inhibition at 1 µM (ROCK1) [%]	inhibition at 1 µM (PRKCE) [%]	inhibition at 1 µM (AURKC) [%]	inhibition at 1 µM (STK17A) [%]
CC(C)Oc1cc(F)ccc1Nc1ncnc2sc(C(=O)NCC3CCNCC3)nc12 [Example 10, 7-(4-fluoro-2-isopropoxy-anilino)-N-(4-piperidylmethyl)thiazolo[5,4-d]pyrimidine-2-carboxamide]	5	10	14	4	7	12	0	0	4	14	2
CN(C)CCCNC(=O)c1nc2c(N3CCc4cc(F)ccc43)ncnc2s1 [Example 64, N-[3-(dimethylamino)propyl]-7-(5-fluoroindolin-1-yl)thiazolo[5,4-d]pyrimidine-2-carboxamide]	0	3	7	4	42	27	0	4	0	15	70
O=C(NCC1CCNCC1)c1nc2c(N3CCc4cc(F)ccc43)ncnc2s1 [Example 58, 7-(5-fluoroindolin-1-yl)-N-(4-piperidylmethyl)thiazolo[5,4-d]pyrimidine-2-carboxamide]	0	7	17	14	13	6	10	0	0	5	41
